For 29 compounds, IC50 results are on record in patent US10208059B2, “Heterocyclic modulators of HIF activity for treatment of disease” (Board of Regents, University of Texas System, priority 2012, dated 2019).

Molecules are shown by their SMILES. Where only a bound is given, the exact number is not on record here.

This experiment has as its system 293T-HRE-GFP-luc cells. In words: Cell-based reporter assay for IC50 determinations. Conditions: hypoxia 6 hrs (1% O2), luminescence, read-out: IC50 Classification. An outline of the steps:
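Cells carrying an HRE-driven GFP-luciferase reporter, seeded at 12,000/well and held overnight, then given 1:3 serial compound dilutions (DMSO, further diluted 1:50 in medium). After 30 min in normoxia, plates held 6 h in hypoxia (1% O2, 37 °C); luciferase luminescence read, IC50 by four-parameter logistic fit.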
As usually defined, the IC50 is the point on the concentration scale where inhibition reaches its midpoint. For the compound `COC(C)(C)CCOc1cccc(Cn2nc(-c3nc(-c4ccc(OC(F)(F)F)cc4)no3)nc2C)c1` [Example 72, 5-(1-{[3-(3-Methoxy-3-methylbutoxy)phenyl]methyl}-5-methyl-1H-1,2,4-triazol-3-yl)-3-[4-(trifluoromethoxy)phenyl]-1,2,4-oxadiazole], the IC50 is under 100 nM.
With `Cc1nc(-c2nc(-c3ccc(OC(F)(F)F)cc3)no2)nn1Cc1cccc(OC2CCN(C)CC2)c1` [Example 73, 1-Methyl-4-{3-[(5-methyl-3-{3-[4-(trifluoromethoxy)phenyl]-1,2,4-oxadiazol-5-yl}-1H-1,2,4-triazol-1-yl)methyl]phenoxy}piperidine] the figure was under 100 nM; with `Cc1nc(-c2nc(-c3ccc(OC(F)(F)F)cc3)no2)nn1Cc1cccc(OCCCN(C)C)c1` [Example 74, Dimethyl(3-{3-[(5-methyl-3-{3-[4-(trifluoromethoxy)phenyl]-1,2,4-oxadiazol-5-yl}-1H-1,2,4-triazol-1-yl)methyl]phenoxy}propyl)amine], under 100 nM.
For the compound `Cc1nc(-c2nc(-c3ccc(OC(F)(F)F)cc3)no2)nn1Cc1cc[nH]c(=O)c1` [Example 75, 4-[(5-Methyl-3-{3-[4-(trifluoromethoxy)phenyl]-1,2,4-oxadiazol-5-yl}-1H-1,2,4-triazol-1-yl)methyl]-1,2-dihydropyridin-2-one], the IC50 is 100 to 1000 nM.
In the case of `Cc1nc(-c2nc(-c3ccc(OC(F)(F)F)cc3)no2)nn1Cc1ccn(CC(C)C)c(=O)c1` [Example 76a, 4-[(5-Methyl-3-{3-[4-(trifluoromethoxy)phenyl]-1,2,4-oxadiazol-5-yl}-1H-1,2,4-triazol-1-yl)methyl]-1-(2-methylpropyl)-1,2-dihydropyridin-2-one] it was 100 to 1000 nM; in that of `Cc1nc(-c2nc(-c3ccc(OC(F)(F)F)cc3)no2)nn1Cc1ccnc(OCC(C)C)c1` [Example 76b, 4-[(5-Methyl-3-{3-[4-(trifluoromethoxy)phenyl]-1,2,4-oxadiazol-5-yl}-1H-1,2,4-triazol-1-yl)methyl]-2-(2-methylpropoxy)pyridine], 100 to 1000 nM.
In the case of `Cc1nc(-c2nc(-c3ccc(OC(F)(F)F)cc3)no2)nn1Cc1ccc(=O)n(CC(C)C)c1` [Example 77a, 5-[(5-Methyl-3-{3-[4-(trifluoromethoxy)phenyl]-1,2,4-oxadiazol-5-yl}-1H-1,2,4-triazol-1-yl)methyl]-1-(2-methylpropyl)-1,2-dihydropyridin-2-one] it was under 100 nM.
With `Cc1nc(-c2nc(-c3ccc(OC(F)(F)F)cc3)no2)nn1Cc1ccc(OCC(C)C)nc1` [Example 77b, 5-[(5-Methyl-3-{3-[4-(trifluoromethoxy)phenyl]-1,2,4-oxadiazol-5-yl}-1H-1,2,4-triazol-1-yl)methyl]-2-(2-methylpropoxy)pyridine] the figure was 100 to 1000 nM.
Turning to `Cc1nc(-c2nc(-c3ccc(OC(F)(F)F)cc3)no2)nn1Cc1cccc(N)c1` [Example 78, 3-[(5-Methyl-3-{3-[4-(trifluoromethoxy)phenyl]-1,2,4-oxadiazol-5-yl}-1H-1,2,4-triazol-1-yl)methyl]aniline], the IC50 was under 100 nM.
In the case of `Cc1nc(-c2nc(-c3ccc(OC(F)(F)F)cc3)no2)nn1Cc1cccc(S(=O)(=O)N2CCN(C)CC2)c1` [Example 79, 1-Methyl-4-{3-[(5-methyl-3-{3-[4-(trifluoromethoxy)phenyl]-1,2,4-oxadiazol-5-yl}-1H-1,2,4-triazol-1-yl)methyl]benzenesulfonyl}piperazine] it was under 100 nM; in that of `Cc1nc(-c2nc(-c3ccc(OC(F)(F)F)cc3)no2)nn1Cc1cccc(N2CCNCC2)c1` [Example 81, 1-{3-[(5-Methyl-3-{3-[4-(trifluoromethoxy)phenyl]-1,2,4-oxadiazol-5-yl}-1H-1,2,4-triazol-1-yl)methyl]phenyl}piperazine], under 100 nM.
In the case of `Cc1nc(-c2nc(-c3ccc(OC(F)(F)F)cc3)no2)nn1Cc1cccc(N2CCN(S(C)(=O)=O)CC2)c1` [Example 82, 1-Methanesulfonyl-4-{3-[(5-methyl-3-{3-[4-(trifluoromethoxy)phenyl]-1,2,4-oxadiazol-5-yl}-1H-1,2,4-triazol-1-yl)methyl]phenyl}piperazine] it was under 100 nM; in that of `Cc1nc(-c2nc(-c3ccc(OC(F)(F)F)cc3)no2)nn1Cc1cccc(N2CCN(C(=O)CO)CC2)c1` [Example 83, 2-Hydroxy-1-(4-{3-[(5-methyl-3-{3-[4-(trifluoromethoxy)phenyl]-1,2,4-oxadiazol-5-yl}-1H-1,2,4-triazol-1-yl)methyl]phenyl}piperazin-1-yl)ethan-1-one], under 100 nM.
In the case of `C=Cc1cccc(Cn2nc(-c3nc(-c4ccc(OC(F)(F)F)cc4)no3)nc2C)c1` [Example 84, 5-{1-[(3-Ethenylphenyl)methyl]-5-methyl-1H-1,2,4-triazol-3-yl}-3-[4-(trifluoromethoxy)phenyl]-1,2,4-oxadiazole] it was 100 to 1000 nM.
On to `Cc1nc(-c2nc(-c3ccc(OC(F)(F)F)cc3)no2)nn1Cc1cccc(C(O)CO)c1` (centres unmarked) [Example 85, 1-{3-[(5-Methyl-3-{3-[4-(trifluoromethoxy)phenyl]-1,2,4-oxadiazol-5-yl}-1H-1,2,4-triazol-1-yl)methyl]phenyl}ethane-1,2-diol], for which the IC50 is under 100 nM.
For `Cc1nc(-c2nc(-c3ccc(OC(F)(F)F)cc3)no2)nn1Cc1cccc(OCC(O)CO)c1` (centres unmarked) [Example 86, 3-{3-[(5-methyl-3-{3-[4-(trifluoromethoxy)phenyl]-1,2,4-oxadiazol-5-yl}-1H-1,2,4-triazol-1-yl)methyl]phenoxy}propane-1,2-diol], the IC50 is under 100 nM.
Take `Cc1nc(-c2nc(-c3ccc(OC(F)(F)F)cc3)cs2)nn1Cc1ccnc(N2CCN(C)CC2)c1` [Example 87, 1-Methyl-4-{4-[(5-methyl-3-{4-[4-(trifluoromethoxy)phenyl]-1,3-thiazol-2-yl}-1H-1,2,4-triazol-1-yl)methyl]pyridin-2-yl}piperazine]: the IC50 is under 100 nM.
With `Cc1nc(-c2nc(-c3ccc(OC(F)(F)F)cc3)cs2)nn1Cc1cccc(S(C)(=O)=O)c1` [Example 88, 1-[(3-Methanesulfonylphenyl)methyl]-5-methyl-3-{4-[4-(trifluoromethoxy)phenyl]-1,3-thiazol-2-yl}-1H-1,2,4-triazole] the figure was 100 to 1000 nM.
In the case of `Cc1nc(-c2nc(-c3ccc(OC(F)(F)F)cc3)cs2)nn1Cc1cccc(C(=O)N(C)C)c1` [Example 89, N,N-Dimethyl-3-[(5-methyl-3-{4-[4-(trifluoromethoxy)phenyl]-1,3-thiazol-2-yl}-1H-1,2,4-triazol-1-yl)methyl]benzamide] it was 100 to 1000 nM; in that of `COCCOc1cccc(Cn2nc(-c3nc(-c4ccc(OC(F)(F)F)cc4)cs3)nc2C)c1` [Example 90, 1-{[3-(2-Methoxyethoxy)phenyl]methyl}-5-methyl-3-{4-[4-(trifluoromethoxy)phenyl]-1,3-thiazol-2-yl}-1H-1,2,4-triazole], 100 to 1000 nM.
In the case of `Cc1nc(-c2nc(-c3ccc(OC(F)(F)F)cc3)cs2)nn1Cc1cccc(OCCO)c1` [Example 91, 2-{3-[(5-Methyl-3-{4-[4-(trifluoromethoxy)phenyl]-1,3-thiazol-2-yl}-1H-1,2,4-triazol-1-yl)methyl]phenoxy}ethan-1-ol] it was 100 to 1000 nM.
Consider `Cc1nc(-c2ncc(-c3ccc(OC(F)(F)F)cc3)o2)nn1Cc1ccnc(N2CCN(C)CC2)c1` [Example 92, 1-Methyl-4-{4-[(5-methyl-3-{5-[4-(trifluoromethoxy)phenyl]-1,3-oxazol-2-yl}-1H-1,2,4-triazol-1-yl)methyl]pyridin-2-yl}piperazine], for which the IC50 was under 100 nM.
For the compound `Cc1nc(-c2ncc(-c3ccc(OC(F)(F)F)cc3)o2)nn1Cc1ccnc(N2CCOCC2)c1` [Example 93, 4-{4-[(5-methyl-3-{5-[4-(trifluoromethoxy)phenyl]-1,3-oxazol-2-yl}-1H-1,2,4-triazol-1-yl)methyl]pyridin-2-yl}morpholine], the IC50 fell in the range of 100 to 1000 nM.
In the case of `Cc1nc(-c2cc(-c3ccc(OC(F)(F)F)cc3)no2)nn1Cc1cccc(N2CCC(S(C)(=O)=O)CC2)c1` [Example 94, 5-(5-Methyl-1-(3-(4-(methylsulfonyl)piperidin-1-yl)benzyl)-1H-1,2,4-triazol-3-yl)-3-(4-(trifluoromethoxy)phenyl)isoxazole] it was under 100 nM; in that of `Cc1nc(-c2cc(-c3ccc(OC(F)(F)F)cc3)no2)nn1Cc1ccnc(N2CCC(S(C)(=O)=O)CC2)c1` [Example 95, 5-(5-Methyl-1-((2-(4-(methylsulfonyl)piperidin-1-yl)pyridin-4-yl)methyl)-1H-1,2,4-triazol-3-yl)-3-(4-(trifluoromethoxy)phenyl)isoxazole], under 100 nM.
In the case of `Cc1nc(-c2cc(-c3ccc(OC(F)(F)F)cc3)on2)nn1Cc1cccc(N2CCC(S(C)(=O)=O)CC2)c1` [Example 96, 3-(5-Methyl-1-(3-(4-(methylsulfonyl)piperidin-1-yl)benzyl)-1H-1,2,4-triazol-3-yl)-5-(4-(trifluoromethoxy)phenyl)isoxazole] it was under 100 nM; in that of `Cc1nc(-c2cc(-c3ccc(OC(F)(F)F)cc3)on2)nn1Cc1ccnc(N2CCC(S(C)(=O)=O)CC2)c1` [Example 97, 3-(5-Methyl-1-((2-(4-(methylsulfonyl)piperidin-1-yl)pyridin-4-yl)methyl)-1H-1,2,4-triazol-3-yl)-5-(4-(trifluoromethoxy)phenyl)isoxazole], 100 to 1000 nM.
For `Cc1nc(-c2nnc(-c3ccc(C(C)(C)C)cc3)o2)nn1Cc1cccc(N2CCOCC2)c1` [Example 98, 4-(3-((3-(5-(4-(tert-butyl)phenyl)-1,3,4-oxadiazol-2-yl)-5-methyl-1H-1,2,4-triazol-1-yl)methyl)phenyl)morpholine], the concentration for half-maximal inhibition (IC50) was under 100 nM.
As for `Cc1nc(-c2nc(-c3ccc(OC(F)(F)F)cc3)no2)nn1Cc1cncnc1` [Example 99, 5-(5-methyl-1-(pyrimidin-5-ylmethyl)-1H-1,2,4-triazol-3-yl)-3-(4-(trifluoromethoxy)phenyl)-1,2,4-oxadiazole], the IC50 was in the range of 1000 to 10000 nM.
